Reference: ChEMBL document CHEMBL1782000, “Thiazole-based chalcones as potent antimicrobial agents. Synthesis and biological evaluation” (2011)
Converted amounts (≈) assume the structure as drawn.

Assays:
Penicillium ochrochloron [1] = assay: Antifungal activity against Penicillium ochrochloron ATCC 9112 after 72 hrs by serial dilution method; assay type: functional; conditions: ATCC 9112, 72 h
Aspergillus versicolor [2] = assay: Antifungal activity against Aspergillus versicolor ATCC 11730 after 72 hrs by serial dilution method; assay type: functional; conditions: ATCC 11730, 72 h
Aspergillus ochraceus [3] = assay: Antifungal activity against Aspergillus ochraceus ATCC 12066 after 72 hrs by serial dilution method; assay type: functional; conditions: ATCC 12066, 72 h
Listeria monocytogenes [4] = assay: Antibacterial activity against Listeria monocytogenes NCTC 7973 after 24 hrs by microdilution method; assay type: functional; conditions: NCTC 7973, 24 h
[5] = Antifungal activity against Fusarium sporotrichioides IMT 496 after 72 hrs by serial dilution method; assay type: functional
Penicillium ochrochloron [6] = assay: Fungicidal activity against Penicillium ochrochloron ATCC 9112 after 72 hrs; assay type: functional; conditions: ATCC 9112, 72 h
Aspergillus versicolor [7] = assay: Fungicidal activity against Aspergillus versicolor ATCC 11730 after 72 hrs; assay type: functional; conditions: ATCC 11730, 72 h
Aspergillus fumigatus [8] = assay: Antifungal activity against Aspergillus fumigatus plant isolate after 72 hrs by serial dilution method; assay type: functional
Aspergillus ochraceus [9] = assay: Fungicidal activity against Aspergillus ochraceus ATCC 12066 after 72 hrs; assay type: functional; conditions: ATCC 12066, 72 h
Talaromyces funiculosus [10] = assay: Antifungal activity against Penicillium funiculosum ATCC 36839 after 72 hrs by serial dilution method; assay type: functional; conditions: ATCC 36839, 72 h
Staphylococcus aureus [11] = assay: Antibacterial activity against Staphylococcus aureus ATCC 6538 after 24 hrs by microdilution method; assay type: functional; conditions: ATCC 6538, 24 h
Pseudomonas aeruginosa [12] = assay: Bactericidal activity against Pseudomonas aeruginosa ATCC 27853 after 24 hrs; assay type: functional; conditions: ATCC 27853, 24 h
Salmonella typhimurium [13] = assay: Antibacterial activity against Salmonella Typhimurium ATCC 13311 after 24 hrs by microdilution method; assay type: functional, Salmonella enterica subsp. enterica serovar Typhimurium; conditions: Salmonella enterica, ATCC 13311, 24 h
Aspergillus fumigatus [14] = assay: Fungicidal activity against Aspergillus fumigatus plant isolate after 72 hrs; assay type: functional
Salmonella typhimurium [15] = assay: Bactericidal activity against Salmonella Typhimurium ATCC 13311 after 24 hrs; assay type: functional, Salmonella enterica subsp. enterica serovar Typhimurium; conditions: Salmonella enterica, ATCC 13311, 24 h
Escherichia coli [16] = assay: Antibacterial activity against Escherichia coli ATCC 35210 after 24 hrs by microdilution method; assay type: functional; conditions: ATCC 35210, 24 h
Trichoderma viride [17] = assay: Fungicidal activity against Trichoderma viride IAM 5061 after 72 hrs; assay type: functional; conditions: IAM 5061, 72 h
Bacillus cereus [18] = assay: Bactericidal activity against Bacillus cereus clinical isolate after 24 hrs; assay type: functional
Talaromyces funiculosus [19] = assay: Fungicidal activity against Penicillium funiculosum ATCC 36839 after 72 hrs; assay type: functional; conditions: ATCC 36839, 72 h
Listeria monocytogenes [20] = assay: Bactericidal activity against Listeria monocytogenes NCTC 7973 after 24 hrs; assay type: functional; conditions: NCTC 7973, 24 h
Enterococcus faecalis [21] = assay: Bactericidal activity against Enterococcus faecalis isolate obtained from human after 24 hrs; assay type: functional
Micrococcus flavus [22] = assay: Antibacterial activity against Micrococcus flavus ATCC 10240 after 24 hrs by microdilution method; assay type: functional; conditions: ATCC 10240, 24 h
Escherichia coli [23] = assay: Bactericidal activity against Escherichia coli ATCC 35210 after 24 hrs; assay type: functional; conditions: ATCC 35210, 24 h
Aspergillus niger [24] = assay: Fungicidal activity against Aspergillus niger ATCC 6275 after 72 hrs; assay type: functional; conditions: ATCC 6275, 72 h
Micrococcus flavus [25] = assay: Ratio of Ampicillin MIC to compound MIC for Micrococcus flavus ATCC 10240 after 24 hrs; assay type: functional
Bacillus cereus [26] = assay: Antibacterial activity against Bacillus cereus clinical isolate after 24 hrs by microdilution method; assay type: functional
Trichoderma viride [27] = assay: Antifungal activity against Trichoderma viride IAM 5061 after 72 hrs by serial dilution method; assay type: functional; conditions: IAM 5061, 72 h
Micrococcus flavus [28] = assay: Bactericidal activity against Micrococcus flavus ATCC 10240 after 24 hrs; assay type: functional; conditions: ATCC 10240, 24 h
Pseudomonas aeruginosa [29] = assay: Antibacterial activity against Pseudomonas aeruginosa ATCC 27853 after 24 hrs by microdilution method; assay type: functional; conditions: ATCC 27853, 24 h
Aspergillus niger [30] = assay: Antifungal activity against Aspergillus niger ATCC 6275 after 72 hrs by serial dilution method; assay type: functional; conditions: ATCC 6275, 72 h
Enterococcus faecalis [31] = assay: Antibacterial activity against Enterococcus faecalis isolate obtained from human after 24 hrs by microdilution method; assay type: functional
Staphylococcus aureus [32] = assay: Bactericidal activity against Staphylococcus aureus ATCC 6538 after 24 hrs; assay type: functional; conditions: ATCC 6538, 24 h
[33] = tested on: Fusarium sporotrichioides; assay: Fungicidal activity against Fusarium sporotrichioides IMT 496 after 72 hrs; assay type: functional; conditions: IMT 496, 72 h

## CNc1nc(C)c(C(=O)/C=C/c2ccc(OC)cc2)s1
Penicillium ochrochloron [1]
  MIC: 340 µM (≈ 98 µg/mL)
Aspergillus versicolor [2]
  MIC: 170 µM (≈ 49 µg/mL)
Aspergillus ochraceus [3]
  MIC: 340 µM (≈ 98 µg/mL)
Listeria monocytogenes [4]
  MIC: 342 µM (≈ 98.6 µg/mL)
[5]
  MIC (10'-2 umol/ml): 34
Penicillium ochrochloron [6]
  MFC: 513 µM (≈ 148 µg/mL)
Aspergillus versicolor [7]
  MFC: 513 µM (≈ 148 µg/mL)
Aspergillus fumigatus [8]
  MIC: 170 µM (≈ 49 µg/mL)
Aspergillus ochraceus [9]
  MFC: 513 µM (≈ 148 µg/mL)
Talaromyces funiculosus [10]
  MIC: 340 µM (≈ 98 µg/mL)
Staphylococcus aureus [11]
  MIC: 290 µM (≈ 83.8 µg/mL)
Pseudomonas aeruginosa [12]
  MBC: 513 µM (≈ 148 µg/mL)
Salmonella typhimurium [13]
  MIC: 342 µM (≈ 98.6 µg/mL)
Aspergillus fumigatus [14]
  MFC: 513 µM (≈ 148 µg/mL)
Salmonella typhimurium [15]
  MBC: 513 µM (≈ 148 µg/mL)
Escherichia coli [16]
  MIC: 342 µM (≈ 98.6 µg/mL)
Trichoderma viride [17]
  MFC: 513 µM (≈ 148 µg/mL)
Bacillus cereus [18]
  MBC: 342 µM (≈ 98.6 µg/mL)
Talaromyces funiculosus [19]
  MFC: 513 µM (≈ 148 µg/mL)
Listeria monocytogenes [20]
  MBC: 513 µM (≈ 148 µg/mL)
Enterococcus faecalis [21]
  MBC: 171 µM (≈ 49.3 µg/mL)
Micrococcus flavus [22]
  MIC: 85.4 µM (≈ 24.6 µg/mL)
Escherichia coli [23]
  MBC: 513 µM (≈ 148 µg/mL)
Aspergillus niger [24]
  MFC: 683 µM (≈ 197 µg/mL)
Micrococcus flavus [25]
  Ratio: 3
Bacillus cereus [26]
  MIC: 290 µM (≈ 83.8 µg/mL)
Trichoderma viride [27]
  MIC: 170 µM (≈ 49 µg/mL)
Micrococcus flavus [28]
  MBC: 171 µM (≈ 49.3 µg/mL)
Pseudomonas aeruginosa [29]
  MIC: 342 µM (≈ 98.6 µg/mL)
Aspergillus niger [30]
  MIC: 340 µM (≈ 98 µg/mL)
Enterococcus faecalis [31]
  MIC: 171 µM (≈ 49.3 µg/mL)
Staphylococcus aureus [32]
  MBC: 342 µM (≈ 98.6 µg/mL)
[33]
  MFC: 513 µM (≈ 148 µg/mL)

## CNc1nc(C)c(C(=O)/C=C/c2ccc(Cl)cc2)s1
Penicillium ochrochloron [1]
  MIC: 340 µM (≈ 99.5 µg/mL)
Aspergillus versicolor [2]
  MIC: 170 µM (≈ 49.8 µg/mL)
Aspergillus ochraceus [3]
  MIC: 340 µM (≈ 99.5 µg/mL)
Listeria monocytogenes [4]
  MIC: 342 µM (≈ 100 µg/mL)
[5]
  MIC (10'-2 umol/ml): 17
Penicillium ochrochloron [6]
  MFC: 513 µM (≈ 150 µg/mL)
Aspergillus versicolor [7]
  MFC: 340 µM (≈ 99.5 µg/mL)
Aspergillus fumigatus [8]
  MIC: 170 µM (≈ 49.8 µg/mL)
Aspergillus ochraceus [9]
  MFC: 513 µM (≈ 150 µg/mL)
Talaromyces funiculosus [10]
  MIC: 170 µM (≈ 49.8 µg/mL)
Staphylococcus aureus [11]
  MIC: 513 µM (≈ 150 µg/mL)
Pseudomonas aeruginosa [12]
  MBC: 342 µM (≈ 100 µg/mL)
Salmonella typhimurium [13]
  MIC: 290 µM (≈ 85.1 µg/mL)
Aspergillus fumigatus [14]
  MFC: 340 µM (≈ 99.5 µg/mL)
Salmonella typhimurium [15]
  MBC: 342 µM (≈ 100 µg/mL)
Escherichia coli [16]
  MIC: 290 µM (≈ 85.1 µg/mL)
Trichoderma viride [17]
  MFC: 340 µM (≈ 99.5 µg/mL)
Bacillus cereus [18]
  MBC: 513 µM (≈ 150 µg/mL)
Talaromyces funiculosus [19]
  MFC: 340 µM (≈ 99.5 µg/mL)
Listeria monocytogenes [20]
  MBC: 513 µM (≈ 150 µg/mL)
Enterococcus faecalis [21]
  MBC: 342 µM (≈ 100 µg/mL)
Micrococcus flavus [22]
  MIC: 85.4 µM (≈ 25 µg/mL)
Escherichia coli [23]
  MBC: 342 µM (≈ 100 µg/mL)
Aspergillus niger [24]
  MFC: 340 µM (≈ 99.5 µg/mL)
Micrococcus flavus [25]
  Ratio: 3
Bacillus cereus [26]
  MIC: 342 µM (≈ 100 µg/mL)
Trichoderma viride [27]
  MIC: 170 µM (≈ 49.8 µg/mL)
Micrococcus flavus [28]
  MBC: 342 µM (≈ 100 µg/mL)
Pseudomonas aeruginosa [29]
  MIC: 256 µM (≈ 75.1 µg/mL)
Aspergillus niger [30]
  MIC: 170 µM (≈ 49.8 µg/mL)
Enterococcus faecalis [31]
  MIC: 171 µM (≈ 50.1 µg/mL)
Staphylococcus aureus [32]
  MBC: 684 µM (≈ 200 µg/mL)
[33]
  MFC: 170 µM (≈ 49.8 µg/mL)

## CNc1nc(C)c(C(=O)/C=C/c2c(Cl)cccc2Cl)s1
Penicillium ochrochloron [1]
  MIC: 153 µM (≈ 50 µg/mL)
Aspergillus versicolor [2]
  MIC: 306 µM (≈ 100 µg/mL)
Aspergillus ochraceus [3]
  MIC: 459 µM (≈ 150 µg/mL)
Listeria monocytogenes [4]
  MIC: 306 µM (≈ 100 µg/mL)
[5]
  MIC (10'-2 umol/ml): 15.3
Penicillium ochrochloron [6]
  MFC: 459 µM (≈ 150 µg/mL)
Aspergillus versicolor [7]
  MFC: 459 µM (≈ 150 µg/mL)
Aspergillus fumigatus [8]
  MIC: 306 µM (≈ 100 µg/mL)
Aspergillus ochraceus [9]
  MFC: 612 µM (≈ 200 µg/mL)
Talaromyces funiculosus [10]
  MIC: 306 µM (≈ 100 µg/mL)
Staphylococcus aureus [11]
  MIC: 306 µM (≈ 100 µg/mL)
Pseudomonas aeruginosa [12]
  MBC: 306 µM (≈ 100 µg/mL)
Salmonella typhimurium [13]
  MIC: 306 µM (≈ 100 µg/mL)
Aspergillus fumigatus [14]
  MFC: 306 µM (≈ 100 µg/mL)
Salmonella typhimurium [15]
  MBC: 306 µM (≈ 100 µg/mL)
Escherichia coli [16]
  MIC: 229 µM (≈ 75 µg/mL)
Trichoderma viride [17]
  MFC: 306 µM (≈ 100 µg/mL)
Bacillus cereus [18]
  MBC: 306 µM (≈ 100 µg/mL)
Talaromyces funiculosus [19]
  MFC: 459 µM (≈ 150 µg/mL)
Listeria monocytogenes [20]
  MBC: 459 µM (≈ 150 µg/mL)
Enterococcus faecalis [21]
  MBC: 306 µM (≈ 100 µg/mL)
Micrococcus flavus [22]
  MIC: 229 µM (≈ 75 µg/mL)
Escherichia coli [23]
  MBC: 306 µM (≈ 100 µg/mL)
Aspergillus niger [24]
  MFC: 612 µM (≈ 200 µg/mL)
Bacillus cereus [26]
  MIC: 260 µM (≈ 85 µg/mL)
Trichoderma viride [27]
  MIC: 153 µM (≈ 50 µg/mL)
Micrococcus flavus [28]
  MBC: 306 µM (≈ 100 µg/mL)
Pseudomonas aeruginosa [29]
  MIC: 229 µM (≈ 75 µg/mL)
Aspergillus niger [30]
  MIC: 306 µM (≈ 100 µg/mL)
Enterococcus faecalis [31]
  MIC: 153 µM (≈ 50 µg/mL)
Staphylococcus aureus [32]
  MBC: 459 µM (≈ 150 µg/mL)
[33]
  MFC: 459 µM (≈ 150 µg/mL)
